In patent US11415513B2, “Method for determining the degree of sensitivity of a strain of fungus to an antifungal agent” (UNIVERSITE GRENOBLE ALPES, priority 2015, dated 2022):
≈ marks a conversion by molar mass, not a printed value. Where two headings read alike, the source gives them in different places. Starred links: 1 amine or outer side, 2 acyl side, 3 side chain; linkers in the order of their positions; H or OH if unused. Positions of bridges follow the written chain, without caps; N, C: chain ends. Non-standard residues stand in square brackets, D forms with d. Residues, ends and D or L forms follow the SMILES beside them. *: point of attachment. hTyr(3S-OH,4S-OH,3'-OSO3H) = N[C@H](C(=O)O)[C@H](O)[C@@H](O)c1ccc(O)c(OS(=O)(=O)O)c1; Orn(4R-OH,5R-OH) = O=C([C@H](C[C@@H](O)[C@@H](O)N[*:3])N[*:1])[*:2]; Pro(3S-OH,4S-Me) = C[C@H]1CN[C@H](C(=O)O)[C@H]1O; X1 = CCCCCOc1ccc(-c2cc(-c3ccc(C(=O)*)cc3)no2)cc1; Gln(3R-OH) = NC(=O)C[C@@H](O)[C@H](N)C(=O)O; Hyp = O=C(O)[C@@H]1C[C@@H](O)CN1

Tests used:
[1] = test system: strain ATCC®22019 of C. parapsilosis; test: Sensitivity test by HCA microscopy (chitin level, Calcofluor White; cell count); type: cell-based, Candida parapsilosis; details: SC medium; for decrease of the number of cells / increase of the chitin level in the wall of the cells: vs cells in the absence of antifungal agent
Description: (§1) The strains of Candida were incubated beforehand at 30° C. overnight in a yeast extract medium—peptone dextrose (YPD) (1% bacto peptone, 0.5% yeast extract, 2% glucose, 1.5% agar).
(§2) Yeast colonies were then removed from YPD medium plates and suspended in a 0.9% NaCl saline solution, in which the cell concentration was estimated by optical microscopy using Kova counting slides.
(§3) A dilution was performed to obtain 15 ml of an inoculum at 3×10^6 CFU/ml, in a synthetic complete (SC) medium at pH 7 (2% glucose, 0.5% ammonium sulfate, 0.17% nitrogen-containing yeast base, 0.2% synthetic complete mixture, and 10% HEPES 1.5M pH 7.2) for C. albicans, C. parapsilosis, C. tropicalis and C. krusei, and in a solution of RPMI 1640 pH 7.3 (10% HEPES 1M pH 7.2) for C. glabrata, so as to reduce the formation of septa and clusters.
(§4) 1 ml of inoculum was then added to 2 ml of antifungal solution prepared in an SC or RPMI medium depending on the species of fungus, so as to obtain a final concentration of yeast of 10^6 CFU/ml and the desired concentration of antifungal agent according to table 1.
(§5) After homogenisation, the cultures were placed at 30° C. at 200 rpm, with the exception of cultures of C. glabrata, which were placed at 35° C. at 200 rpm, and incubated for a period of 6.5 h or 24 h.
(§6) After incubation, 100 μl of the culture of fungi obtained above were transferred in triplicate to 96-well plates, and 2.5 μl of Calcofluor White (CFW) were added to each well so as to mark the chitin of the cell walls of the yeasts.
(§7) A step of acquiring images by automated fluorescence microscopy (ScanR screening station, Olympus), using a 40× lens and a CFW filter, made it possible to obtain 30 images per well so as to capture enough cells to provide statistically significant data. These images were analysed by software (ScanR analysis software, Olympus). Firstly, the background noise was processed so as to improve the contrast between the fluorescence of the yeasts and background noise. A pixel threshold was then defined. Segmentation of the fluorescent elements present in each of the acquired images was then performed using an algorithm predefined in the software, making it possible to determine the limit of each element on the basis of the fluorescence intensity of said element. A size parameter was then applied to select the yeasts and eliminate the aggregates and the fluorescent debris.
(§8) Each element then corresponding to a yeast, it was thus possible, on the basis of these elements predefined beforehand, to define the fluorescence intensity for each of the yeasts, this intensity being directly correlated with the chitin content of their wall.
(§9) On the basis of said defined elements, it was also possible to automatically count the yeasts,
The strain ATCC®22019 of C. parapsilosis was cultivated as described in paragraph I of the Examples section so as to obtain an inoculum at 3×10^6 CFU/ml in 15 ml of SC medium.
(§10) 2 ml of fluconazole solution prepared in the SC medium were then added to 1 ml of this inoculum so as to obtain a final concentration of yeast of 10^6 CFU/ml and of 16 μg/ml in fluconazole.
(§11) The inoculum was treated in the same way so as to obtain cultures of 10^6 CFU/ml and the following concentrations of fluconazole: 0.015 μg/ml, 0.031 μg/ml, 0.062 μg/ml, 0.125 μg/ml, 0.25 μg/ml, 0.5 μg/ml, 1 μg/ml, 2 μg/ml, 4 μg/ml, 8 μg/ml, 16 μg/ml.
After incubation for 6.5 h at 30° C. with stirring at 200 rpm, 100 μl of each culture were removed and transferred to 96-well plates. This procedure was performed in triplicate, and 2.5 μl of CFW were then added to each well.
(§12) The chitin level in the cell wall of the yeasts was then measured by […] analysis (HCA) microscopy, as described in paragraph II of the Examples section, in triplicate for each condition of concentration of fluconazole and without fluconazole. […]

[2] = test system: strain ATCC®7349 of C. tropicalis; test: Etest method (MIC); type: cell-based, Candida tropicalis; details: for MIC: Candida tropicalis, read-out: MIC (Etest method)
Description: (§13) The Etest® method is a commercial test for determining the sensitivity of a strain, most frequently used routinely in clinical mycology laboratories.
(§14) The Etest® tests were performed according to the manufacturer's instructions. After distributing a standardised Mac Farland 0.5 inoculum (equivalent of […]) over plates of RPMI medium, said plates were incubated for 24 h at 35° C., with the exception of C. glabrata in which case the incubation was extended to 48 h so as to be able to determine the minimum inhibitory concentration (MIC).
(§15) The results of the MICs obtained were interpreted in accordance with the tables of the CLSI (Clinical and Laboratory Standards Institute) and/or of EUCAST (European Committee on Antimicrobial Susceptibility Testing) (Arendrup M C, Cuenca-Estrella M, Lass-Flörl C, Hope W W (2014) Breakpoints for antifungal agents: an update from EUCAST focussing on echinocandins against Candida spp and triazoles against Aspergillus spp. Drug Resist Updat 16(6):81-95. doi:10.1016/j.drup.2014.01.001) (cf. Table 2 taken from Maubon D, Garnaud C, Calandra T, et al. (2014) Resistance of Candida spp. to antifungal drugs in the ICU: where are we now? Intensive Care Med. doi: 10.1007/s00134-014-3404-7) which list the clinical thresholds (CBPs) for the most common species of yeast of the genus Candida as a function of different antifungal agents, or according to the table of epidemiological thresholds (ECVs).

[3] = test system: strain ATCC®22019 of C. parapsilosis; test: Etest method (MIC); type: cell-based, Candida parapsilosis; details: for MIC: Lodderomyces parapsilosis, read-out: MIC (Etest method)
Description: as §13, §14, §15

[4] = test system: strain ATCC®7349 of C. tropicalis; test: Sensitivity test by HCA microscopy (chitin level, Calcofluor White; cell count); type: cell-based, Candida tropicalis; details: SC medium; for decrease of the number of cells / increase of the chitin level in the wall of the cells: vs cells in the absence of antifungal agent; for increase of the chitin level in the wall of the cells: concentration gradient of Table 1
Description: as §1, §2, §3, §4, §5, §6, §7, §8, §9
The strain ATCC®7349 of C. tropicalis was cultivated as described in paragraph I of the Examples section so as to obtain an inoculum at 3×10^6 CFU/ml in 15 ml of SC medium.
as §10, §11
After incubation for 24 h at 30° C. with stirring at 200 rpm, 100 μl of each culture were removed and transferred to 96-well plates. This procedure was performed in triplicate, and 2.5 μl of CFW were then added to each well.
as §12

[5] = 6.5 h at 30° C., concentration gradient of Table 1
[6] = ATCC7349, RPMI medium plates, 24 h at 35° C.
[7] = RPMI medium plates, 24 h at 35° C.
[8] = ATCC22019, RPMI medium plates, 24 h at 35° C.

## OC(Cn1cncn1)(Cn1cncn1)c1ccc(F)cc1F [fluconazole]
[1]; 6.5 h at 30° C.
  phenotype of the strain with respect to the antifungal agent (HCA): sensitive (an increase in the chitin level greater than or equal to 20% is observed compared to the chitin level of a population of cells of said fungus in the absence of antifungal agent, as well as a decrease in the number of cells of at least 0.3 log)
  decrease of the number of cells: at least 0.3 log
[1]; [5]
  increase of the chitin level in the wall of the cells: greater than or equal to 20%
[2]; [6]
  MIC: 0.38 µg/mL (≈ 1.24 µM)
[2]; [7]
  phenotype by Etest MIC, interpretation by the EUCAST and/or CLSI tables: sensitive
[3]; [8]
  MIC: 1 µg/mL (≈ 3.27 µM)
[3]; [7]
  phenotype by Etest MIC, interpretation by the EUCAST and/or CLSI tables: sensitive
[4]; 24 h at 30° C.
  phenotype of the strain with respect to the antifungal agent (HCA): sensitive (an increase in the chitin level greater than or equal to 20% is observed compared to the chitin level of a population of cells of said fungus in the absence of antifungal agent, as well as a decrease in the number of cells of at least 0.3 log)
  decrease of the number of cells: at least 0.3 log
  increase of the chitin level in the wall of the cells: greater than or equal to 20%

## CCCCCOc1ccc(-c2cc(-c3ccc(C(=O)N[C@H]4C[C@@H](O)[C@@H](O)NC(=O)[C@@H]5[C@@H](O)[C@@H](C)CN5C(=O)[C@H]([C@H](O)CC(N)=O)NC(=O)[C@H]([C@H](O)[C@@H](O)c5ccc(O)c(OS(=O)(=O)O)c5)NC(=O)[C@@H]5C[C@@H](O)CN5C(=O)[C@H]([C@@H](C)O)NC4=O)cc3)no2)cc1 [micafungin] (X1-[Orn(4R-OH,5R-OH)]T[Hyp][hTyr(3S-OH,4S-OH,3'-OSO3H)][Gln(3R-OH)][Pro(3S-OH,4S-Me)]; lactam 1-C)
[1]; 24 h at 30° C.
  phenotype of the strain with respect to the antifungal agent (HCA): sensitive (an increase in the chitin level greater than or equal to 20% is observed compared to the chitin level of a population of cells of said fungus in the absence of antifungal agent, as well as a decrease in the number of cells of at least 0.3 log)
  decrease of the number of cells: at least 0.3 log
[1]; 24 h at 30° C., concentration gradient up to 1 μg/ml
  increase of the chitin level in the wall of the cells: greater than or equal to 20%
[2]; ATCC7349, 24 h
  MIC: 0.016 µg/mL (≈ 0.0126 µM)
[2]; [7]
  phenotype by Etest MIC, interpretation by the EUCAST and/or CLSI tables: sensitive
[3]; ATCC22019, 24 h
  MIC: 0.19 µg/mL (≈ 0.15 µM)
[3]; [7]
  phenotype by Etest MIC, interpretation by the EUCAST and/or CLSI tables: sensitive
[4]; 6.5 h at 30° C.
  phenotype of the strain with respect to the antifungal agent (HCA): sensitive (an increase in the chitin level greater than or equal to 20% is observed compared to the chitin level of a population of cells of said fungus in the absence of antifungal agent, as well as a decrease in the number of cells of at least 0.3 log)
  decrease of the number of cells: at least 0.3 log
  increase of the chitin level in the wall of the cells: greater than or equal to 20%

## C[C@@H](c1ncncc1F)[C@](O)(Cn1cncn1)c1ccc(F)cc1F [voriconazole]
[1]; 6.5 h at 30° C.
  phenotype of the strain with respect to the antifungal agent (HCA): sensitive (an increase in the chitin level greater than or equal to 20% is observed compared to the chitin level of a population of cells of said fungus in the absence of antifungal agent, as well as a decrease in the number of cells of at least 0.3 log)
  decrease of the number of cells: at least 0.3 log
[1]; [5]
  increase of the chitin level in the wall of the cells: greater than or equal to 20%
[2]; [6]
  MIC: 0.023 µg/mL (≈ 0.0658 µM)
[2]; [7]
  phenotype by Etest MIC, interpretation by the EUCAST and/or CLSI tables: sensitive
[3]; [8]
  MIC: 0.023 µg/mL (≈ 0.0658 µM)
[3]; [7]
  phenotype by Etest MIC, interpretation by the EUCAST and/or CLSI tables: sensitive
[4]; 6.5 h at 30° C.
  phenotype of the strain with respect to the antifungal agent (HCA): sensitive (an increase in the chitin level greater than or equal to 20% is observed compared to the chitin level of a population of cells of said fungus in the absence of antifungal agent, as well as a decrease in the number of cells of at least 0.3 log)
  decrease of the number of cells: at least 0.3 log
  increase of the chitin level in the wall of the cells: greater than or equal to 20%
